Like-named read-outs stand apart in the source and are kept apart here.
Tests used:
[1] = 5 µM
[2] = 5 µM; remark: listed apart in the source

SMILES: CCC(C)(CC)C(=O)OC1=C[C@@H]2N(C)CC[C@]2(c2ccc(OC)c(OC)c2)CC1 [Compound 430, (3aS,7aS)-3a-(3,4-dimethoxyphenyl)-1-methyl-2,3,3a,4,5,7a-hexahydro-1H-indol-6-yl 2-ethyl-2-methylbutanoate]
- Rat Plasma Prodrug (%) ([1]; 0 min): 100.0%
- Rat Plasma Prodrug (%) ([1]; 10 min): 98.2%
- Rat Plasma Prodrug (%) ([1]; 30 min): 98.3%
- Rat Plasma Prodrug (%) ([1]; 60 min): 97.1%
- Rat Plasma Prodrug (%) ([1]; 120 min): 94.1%
- Rat Plasma Prodrug (%) ([1]; 240 min): 92.8%
- Human Plasma Prodrug (%) ([2]; 0 min): 100.0%
- Human Plasma Prodrug (%) ([2]; 10 min): >99%
- Human Plasma Prodrug (%) ([2]; 30 min): >99%
- Human Plasma Prodrug (%) ([2]; 60 min): >99%
- Human Plasma Prodrug (%) ([2]; 120 min): >99%
- Human Plasma Prodrug (%) ([2]; 240 min): 95.9%

SMILES: CCC(C)(C)C(=O)OC1=C[C@@H]2N(C)CC[C@]2(c2ccc(OC)c(OC)c2)CC1 [Compound 428, (3aS,7aS)-3a-(3,4-dimethoxyphenyl)-1-methyl-2,3,3a,4,5,7a-hexahydro-1H-indol-6-yl 2,2-dimethylbutanoate]
- Rat Plasma Prodrug (%) ([1]; 0 min): 100.0%
- Rat Plasma Prodrug (%) ([1]; 10 min): 90.3%
- Rat Plasma Prodrug (%) ([1]; 30 min): 69.9%
- Rat Plasma Prodrug (%) ([1]; 60 min): 41.7%
- Rat Plasma Prodrug (%) ([1]; 120 min): 18.1%
- Rat Plasma Prodrug (%) ([1]; 240 min): 3.9%
- Human Plasma Prodrug (%) ([2]; 0 min): 100.0%
- Human Plasma Prodrug (%) ([2]; 10 min): 82.9%
- Human Plasma Prodrug (%) ([2]; 30 min): 74.5%
- Human Plasma Prodrug (%) ([2]; 60 min): 69.1%
- Human Plasma Prodrug (%) ([2]; 120 min): 56.8%
- Human Plasma Prodrug (%) ([2]; 240 min): 46.0%

SMILES: COc1ccc([C@@]23CCC(OC(=O)c4c(C)cc(C)cc4C)=C[C@@H]2N(C)CC3)cc1OC [Compound 356, (3aS,7aS)-3a-(3,4-dimethoxyphenyl)-1-methyl-2,3,3a,4,5,7a-hexahydro-1H-indol-6-yl 2,4,6-trimethylbenzoate]
- Rat Plasma Prodrug (%) ([1]; 0 min): 100.0%
- Rat Plasma Prodrug (%) ([1]; 10 min): >99%
- Rat Plasma Prodrug (%) ([1]; 30 min): >99%
- Rat Plasma Prodrug (%) ([1]; 60 min): >99%
- Rat Plasma Prodrug (%) ([1]; 120 min): >99%
- Rat Plasma Prodrug (%) ([1]; 240 min): 95.8%
- Human Plasma Prodrug (%) ([2]; 0 min): 100.0%
- Human Plasma Prodrug (%) ([2]; 10 min): >99%
- Human Plasma Prodrug (%) ([2]; 30 min): >99%
- Human Plasma Prodrug (%) ([2]; 60 min): >99%
- Human Plasma Prodrug (%) ([2]; 120 min): >99%
- Human Plasma Prodrug (%) ([2]; 240 min): >99%

SMILES: CCCC(CCC)C(=O)OC1=C[C@@H]2N(C)CC[C@]2(c2ccc(OC)c(OC)c2)CC1 [Compound 427, (3aS,7aS)-3a-(3,4-dimethoxyphenyl)-1-methyl-2,3,3a,4,5,7a-hexahydro-1H-indol-6-yl 2-propylpentanoate]
- Rat Plasma Prodrug (%) ([1]; 0 min): 100.0%
- Rat Plasma Prodrug (%) ([1]; 10 min): 93.6%
- Rat Plasma Prodrug (%) ([1]; 30 min): 73.4%
- Rat Plasma Prodrug (%) ([1]; 60 min): 43.9%
- Rat Plasma Prodrug (%) ([1]; 120 min): 16.0%
- Rat Plasma Prodrug (%) ([1]; 240 min): 2.3%
- Human Plasma Prodrug (%) ([2]; 0 min): 100.0%
- Human Plasma Prodrug (%) ([2]; 10 min): >99%
- Human Plasma Prodrug (%) ([2]; 30 min): 96.6%
- Human Plasma Prodrug (%) ([2]; 60 min): 96.9%
- Human Plasma Prodrug (%) ([2]; 120 min): 95.5%
- Human Plasma Prodrug (%) ([2]; 240 min): 91.2%

SMILES: COc1ccc([C@@]23CCC(OC(=O)CC(C)(C)C)=C[C@@H]2N(C)CC3)cc1OC [Compound 431, (3aS,7aS)-3a-(3,4-dimethoxyphenyl)-1-methyl-2,3,3a,4,5,7a-hexahydro-1H-indol-6-yl 3,3-dimethylbutanoate]
- Rat Plasma Prodrug (%) ([1]; 0 min): 100.0%
- Rat Plasma Prodrug (%) ([1]; 10 min): 74.5%
- Rat Plasma Prodrug (%) ([1]; 30 min): 45.7%
- Rat Plasma Prodrug (%) ([1]; 60 min): 16.5%
- Rat Plasma Prodrug (%) ([1]; 120 min): 2.3%
- Rat Plasma Prodrug (%) ([1]; 240 min): 0.2%
- Human Plasma Prodrug (%) ([2]; 0 min): 100.0%
- Human Plasma Prodrug (%) ([2]; 10 min): 82.1%
- Human Plasma Prodrug (%) ([2]; 30 min): 69.0%
- Human Plasma Prodrug (%) ([2]; 60 min): 62.8%
- Human Plasma Prodrug (%) ([2]; 120 min): 52.6%
- Human Plasma Prodrug (%) ([2]; 240 min): 37.4%

SMILES: COCCCCC(=O)OC1=C[C@@H]2N(C)CC[C@]2(c2ccc(OC)c(OC)c2)CC1 [Compound 404, (3aS,7aS)-3a-(3,4-dimethoxyphenyl)-1-methyl-2,3,3a,4,5,7a-hexahydro-1H-indol-6-yl 5-methoxypentanoate]
- Rat Plasma Prodrug (%) ([1]; 0 min): 100.0%
- Rat Plasma Prodrug (%) ([1]; 10 min): 0.3%
- Rat Plasma Prodrug (%) ([1]; 30 min): 0.3%
- Rat Plasma Prodrug (%) ([1]; 60 min): 0.3%
- Rat Plasma Prodrug (%) ([1]; 120 min): 0.3%
- Rat Plasma Prodrug (%) ([1]; 240 min): 0.2%
- Human Plasma Prodrug (%) ([2]; 0 min): 100.0%
- Human Plasma Prodrug (%) ([2]; 10 min): 22.9%
- Human Plasma Prodrug (%) ([2]; 30 min): 11.5%
- Human Plasma Prodrug (%) ([2]; 60 min): 7.6%
- Human Plasma Prodrug (%) ([2]; 120 min): 3.8%
- Human Plasma Prodrug (%) ([2]; 240 min): 1.6%

SMILES: CCCCCCCC(=O)OC1=C[C@@H]2N(C)CC[C@]2(c2ccc(OC)c(OC)c2)CC1 [Compound 395, (3aS,7aS)-3a-(3,4-dimethoxyphenyl)-1-methyl-2,3,3a,4,5,7a-hexahydro-1H-indol-6-yl octanoate]
- Rat Plasma Prodrug (%) ([1]; 0 min): 100.0%
- Rat Plasma Prodrug (%) ([1]; 10 min): 0.3%
- Rat Plasma Prodrug (%) ([1]; 30 min): 0.1%
- Rat Plasma Prodrug (%) ([1]; 60 min): 0.1%
- Rat Plasma Prodrug (%) ([1]; 120 min): 0.1%
- Rat Plasma Prodrug (%) ([1]; 240 min): 0.1%
- Human Plasma Prodrug (%) ([2]; 0 min): 100.0%
- Human Plasma Prodrug (%) ([2]; 10 min): 13.9%
- Human Plasma Prodrug (%) ([2]; 30 min): 3.5%
- Human Plasma Prodrug (%) ([2]; 60 min): 1.1%
- Human Plasma Prodrug (%) ([2]; 120 min): 0.3%
- Human Plasma Prodrug (%) ([2]; 240 min): 0.1%

SMILES: CCCC(C)(C)C(=O)OC1=C[C@@H]2N(C)CC[C@]2(c2ccc(OC)c(OC)c2)CC1 [Compound 429, (3aS,7aS)-3a-(3,4-dimethoxyphenyl)-1-methyl-2,3,3a,4,5,7a-hexahydro-1H-indol-6-yl 2,2-dimethylpentanoate]
- Rat Plasma Prodrug (%) ([1]; 0 min): 100.0%
- Rat Plasma Prodrug (%) ([1]; 10 min): 90.4%
- Rat Plasma Prodrug (%) ([1]; 30 min): 83.9%
- Rat Plasma Prodrug (%) ([1]; 60 min): 71.9%
- Rat Plasma Prodrug (%) ([1]; 120 min): 50.8%
- Rat Plasma Prodrug (%) ([1]; 240 min): 26.2%
- Human Plasma Prodrug (%) ([2]; 0 min): 100.0%
- Human Plasma Prodrug (%) ([2]; 10 min): >99%
- Human Plasma Prodrug (%) ([2]; 30 min): 96.3%
- Human Plasma Prodrug (%) ([2]; 60 min): 95.3%
- Human Plasma Prodrug (%) ([2]; 120 min): 91.8%
- Human Plasma Prodrug (%) ([2]; 240 min): 84.6%

SMILES: CCCCCC(C)C(=O)OC1=C[C@@H]2N(C)CC[C@]2(c2ccc(OC)c(OC)c2)CC1 (stereo partly drawn) [Compound 400, (3aS,7aS)-3a-(3,4-dimethoxyphenyl)-1-methyl-2,3,3a,4,5,7a-hexahydro-1H-indol-6-yl 2-methylheptanoate]
- Rat Plasma Prodrug (%) ([1]; 0 min): 100.0%
- Rat Plasma Prodrug (%) ([1]; 10 min): 12.6%
- Rat Plasma Prodrug (%) ([1]; 30 min): 0.6%
- Rat Plasma Prodrug (%) ([1]; 60 min): 0.1%
- Rat Plasma Prodrug (%) ([1]; 120 min): 0.1%
- Rat Plasma Prodrug (%) ([1]; 240 min): 0.0%
- Human Plasma Prodrug (%) ([2]; 0 min): 100.0%
- Human Plasma Prodrug (%) ([2]; 10 min): 34.7%
- Human Plasma Prodrug (%) ([2]; 30 min): 11.6%
- Human Plasma Prodrug (%) ([2]; 60 min): 5.2%
- Human Plasma Prodrug (%) ([2]; 120 min): 2.3%
- Human Plasma Prodrug (%) ([2]; 240 min): 1.9%

SMILES: CCCC(CC)CC(=O)OC1=C[C@@H]2N(C)CC[C@]2(c2ccc(OC)c(OC)c2)CC1 (stereo partly drawn) [Compound 398, (3aS,7aS)-3a-(3,4-dimethoxyphenyl)-1-methyl-2,3,3a,4,5,7a-hexahydro-1H-indol-6-yl 3-ethylhexanoate]
- Rat Plasma Prodrug (%) ([1]; 0 min): 100.0%
- Rat Plasma Prodrug (%) ([1]; 10 min): 2.8%
- Rat Plasma Prodrug (%) ([1]; 30 min): 0.7%
- Rat Plasma Prodrug (%) ([1]; 60 min): 0.1%
- Rat Plasma Prodrug (%) ([1]; 120 min): 0.0%
- Rat Plasma Prodrug (%) ([1]; 240 min): 0.0%
- Human Plasma Prodrug (%) ([2]; 0 min): 100.0%
- Human Plasma Prodrug (%) ([2]; 10 min): 96.4%
- Human Plasma Prodrug (%) ([2]; 30 min): 85.0%
- Human Plasma Prodrug (%) ([2]; 60 min): 72.4%
- Human Plasma Prodrug (%) ([2]; 120 min): 51.6%
- Human Plasma Prodrug (%) ([2]; 240 min): 25.5%

Source: patent publication US12269800B2, “Delivery of therapeutic alkaloid compounds” (priority 2021, dated 2025)
